Data: patent US5432165A, “Methods for the treatment of infection caused by Hepatitis B virus (HBV)” (priority 1992, dated 1995)

How the values were obtained:
[1] = Adverse Experience Summary (Table II), HIV-infected patients; format: in vivo, human
Source text: A summary of the adverse effects experienced by some of the patients involved in the various dosage studies conducted are presented in Table II, attached hereto. Where no entry is given, no adverse experience was observed.

[2] = tested on: CMV; conditions: read-out: in vitro ED90; cited from earlier work

For `O=c1[nH]c(=O)n([C@@H]2O[C@H](CO)[C@@H](O)[C@@H]2F)cc1I` [FIAU, 1-(2'-deoxy-2'-fluoro-β-D-arabinofuranosyl)-5-iodouracil], the “Incidence: AST elevation, severe (>5x)” value ([1]; 0.1 mg/kg-day) was 1/4, the “Incidence: Fatigue, moderate” value ([1]; 0.1 mg/kg-day) was 1/4 and the “Incidence: Hyperbilirubemia, mild” value ([1]; 0.1 mg/kg-day) was 2/4. The “Incidence: Hypercalcemia, mild” value ([1]; 0.1 mg/kg-day) was 1/4, the “Incidence: Hypocalcemia, mild” value ([1]; 0.1 mg/kg-day) was 1/4 and the “Incidence: Hypoglycemia, mild” value ([1]; 0.1 mg/kg-day) was 1/4. The “Incidence: Hyponatremia, mild” value ([1]; 0.1 mg/kg-day) was 1/4, the “Incidence: ALT elevation, mild (1.25-2.5x)” value ([1]; 0.5 mg/kg-day) was 3/10 and the “Incidence: ALT elevation, severe (>5x)” value ([1]; 0.5 mg/kg-day) was 2/10. For the same compound, the “Incidence: AST elevation, mild (1.25-2.5x)” value ([1]; 0.5 mg/kg-day) was 3/10, the “Incidence: AST elevation, moderate (2.5-5.0x)” value ([1]; 0.5 mg/kg-day) was 1/10 and the “Incidence: AST elevation, severe (>5x)” value ([1]; 0.5 mg/kg-day) was 2/10. The “Incidence: Diarrhea, mild” value ([1]; 0.5 mg/kg-day) was 1/10, the “Incidence: Disoriented, mild” value ([1]; 0.5 mg/kg-day) was 1/10 and the “Incidence: Fatigue, mild” value ([1]; 0.5 mg/kg-day) was 3/10. For the same compound, the “Incidence: Fatigue, moderate” value ([1]; 0.5 mg/kg-day) was 1/10, the “Incidence: Headache, mild” value ([1]; 0.5 mg/kg-day) was 2/10 and the “Incidence: Headache, moderate” value ([1]; 0.5 mg/kg-day) was 1/10. The “Incidence: Hemauria, moderate” value ([1]; 0.5 mg/kg-day) was 1/10, the “Incidence: Hypophosphatemia, moderate” value ([1]; 0.5 mg/kg-day) was 1/10 and the “Incidence: Nausea, mild” value ([1]; 0.5 mg/kg-day) was 3/10. The “Incidence: Nausea, moderate” value ([1]; 0.5 mg/kg-day) was 1/10, the “Incidence: Proteinuria, mild” value ([1]; 0.5 mg/kg-day) was 1/10 and the “Incidence: Stomatitis, moderate” value ([1]; 0.5 mg/kg-day) was 1/10. The “Incidence: Vomiting, mild” value ([1]; 0.5 mg/kg-day) was 2/10, the “Incidence: Weakness, mild” value ([1]; 0.5 mg/kg-day) was 2/10 and the “Incidence: ALT elevation, mild (1.25-2.5x)” value ([1]; 1.0 mg/kg-day) was 4/9. The “Incidence: ALT elevation, moderate (2.5-5.0x)” value ([1]; 1.0 mg/kg-day) was 1/9, the “Incidence: ALT elevation, severe (>5x)” value ([1]; 1.0 mg/kg-day) was 3/9 and the “Incidence: AST elevation, mild (1.25-2.5x)” value ([1]; 1.0 mg/kg-day) was 4/9. The “Incidence: AST elevation, moderate (2.5-5.0x)” value ([1]; 1.0 mg/kg-day) was 1/9, the “Incidence: AST elevation, severe (>5x)” value ([1]; 1.0 mg/kg-day) was 3/9 and the “Incidence: Abdominal Cramping, moderate” value ([1]; 1.0 mg/kg-day) was 1/9. The “Incidence: Constipation, mild” value ([1]; 1.0 mg/kg-day) was 1/9, the “Incidence: Decreases sensations, mild” value ([1]; 1.0 mg/kg-day) was 1/9 and the “Incidence: Diarrhea, mild” value ([1]; 1.0 mg/kg-day) was 2/9. For the same compound, the “Incidence: Difficulty focusing, mild” value ([1]; 1.0 mg/kg-day) was 1/9, the “Incidence: Dizziness, mild” value ([1]; 1.0 mg/kg-day) was 1/9 and the “Incidence: Fatigue, mild” value ([1]; 1.0 mg/kg-day) was 2/9. For the same compound, the “Incidence: Fatigue, moderate” value ([1]; 1.0 mg/kg-day) was 1/9, the “Incidence: Fatigue, severe” value ([1]; 1.0 mg/kg-day) was 1/9 and the “Incidence: Headache, mild” value ([1]; 1.0 mg/kg-day) was 1/9. For the same compound, the “Incidence: Headache, severe” value ([1]; 1.0 mg/kg-day) was 1/9, the “Incidence: Heartbum, mild” value ([1]; 1.0 mg/kg-day) was 1/9 and the “Incidence: Light Stools, mild” value ([1]; 1.0 mg/kg-day) was 1/9. For the same compound, the “Incidence: Nausea, mild” value ([1]; 1.0 mg/kg-day) was 6/9, the “Incidence: Nausea, moderate” value ([1]; 1.0 mg/kg-day) was 1/9 and the “Incidence: Paresibesia (extremities), mild” value ([1]; 1.0 mg/kg-day) was 1/9. The “Incidence: Vomiting, mild” value ([1]; 1.0 mg/kg-day) was 1/9, the “Incidence: Weakness, mild” value ([1]; 1.0 mg/kg-day) was 2/9 and the “Incidence: Weakness, moderate” value ([1]; 1.0 mg/kg-day) was 1/9. The “Incidence: myositis, severe” value ([1]; 1.0 mg/kg-day) was 1/9 and the EC90 [2] was roughly 0.5 µM.
